The EC50 is the concentration giving half of the maximal effect. A word on the inhibition: it is the drop in the measured response relative to a control, in per cent.

Structures are written as SMILES.

The subject of one experiment is SW480 colon cancer cells. Kind of experiment: Cell viability assay (CellTiter-Blue) in SW480 cells. In kind it is cell-based. Conditions: Homo sapiens, 96 h, four days; for EC50: CellTiter-Blue, 10 μM to 0.0045 μM; for inhibition at 10 µM: read-out: percent inhibition at 10 μM (given for EC50 of >10 μM). In outline:
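SW480 cells (~2×10^3 per well) were exposed to compound for four days at 37 °C/5% CO2, using 8-point 1:3 dilutions from 10 μM to 0.0045 μM in duplicate. Viability was read by resazurin reduction (CellTiter-Blue, ~3 h, Ex 560/Em 590 nm). EC50 came from non-linear regression; above 10 μM, percent inhibition at 10 μM is given.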
Background: Alamar Blue is a resazurin reagent that responds to reducing activity.

For experiment [1], the system named is primary human fibroblasts derived from IPF patients (LL29 cells) treated with TGF-β1. Kind of experiment: Inhibition of the fibrotic process: αSMA staining in TGF-β1-treated LL29 fibroblasts. In kind it is cell-based. Conditions: Fibroblast, 96 h, LL29 fibroblasts treated with TGF-β1 (20 ng/mL), 4 days, Table 4. A digest of the protocol: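 IPF-derived LL29 fibroblasts in F12 with 1% FBS dosed with compound (11-point, 10 μM to 1.87 nM, 0.1% DMSO), then 20 ng/mL TGF-β1 after 1 h, and cultured 4 days at 37 °C. αSMA-positive cell fraction imaged after excluding SYTOX-positive cells, normalized to TGF-β1/DMSO wells; EC50 by non-linear regression, % inhibition at 10 μM if EC50 >10 μM.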

As for `COc1cncc(-c2ccc3[nH]nc(-c4nc5c(-c6ccoc6)cccc5[nH]4)c3n2)c1` [Compound 692, 3-(4-(Furan-3-yl)-1H-benzo[d]imidazol-2-yl)-5-(5-methoxypyridin-3-yl)-1H-pyrazolo[4,3-b]pyridine], the EC50 with SW480 colon cancer cells stood at 2100 nM; in experiment [1], 1410 nM.

With `Cn1cc(-c2ccc3[nH]nc(-c4nc5c(-c6cccs6)cccc5[nH]4)c3n2)cn1` [Compound 700, 5-(1-Methyl-1H-pyrazol-4-yl)-3-(4-(thiophen-2-yl)-1H-benzo[d]imidazol-2-yl)-1H-pyrazolo[4,3-b]pyridine], in the experiment with SW480 colon cancer cells, the inhibition at 10 µM is 27.3% and the EC50 was above 10000 nM. In experiment [1], this molecule had an EC50 of 391 nM.

Regarding `CN(C)CCOc1cncc(-c2ccc3[nH]nc(-c4nc5c(-c6cccs6)cccc5[nH]4)c3n2)c1` [Compound 707, N,N-Dimethyl-2-((5-(3-(4-(thiophen-2-yl)-1H-benzo[d]imidazol-2-yl)-1H-pyrazolo[4,3-b]pyridin-5-yl)pyridin-3-yl)oxy)ethan-1-amine], the results for the EC50 (in the experiment with SW480 colon cancer cells; in experiment [1]) were 1540 nM and 1350 nM, respectively.

As for `Cc1ccc(-c2cccc3[nH]c(-c4n[nH]c5ccc(C6=CCNCC6)nc45)nc23)s1` [Compound 730, 3-(4-(5-Methylthiophen-2-yl)-1H-benzo[d]imidazol-2-yl)-5-(1,2,3,6-tetrahydropyridin-4-yl)-1H-pyrazolo[4,3-b]pyridine], the EC50 turned out to be 642 nM in the experiment on SW480 colon cancer cells and 1340 nM in experiment [1].

As for `Cc1ccc(-c2cccc3[nH]c(-c4n[nH]c5ccc(-c6cncc(OC7CCCCC7)c6)nc45)nc23)s1` [Compound 735, 5-(5-(Cyclohexyloxy)pyridin-3-yl)-3-(4-(5-methylthiophen-2-yl)-1H-benzo [d]imidazol-2-yl)-1H-pyrazolo[4,3-b]pyridine], in the experiment with SW480 colon cancer cells, the inhibition at 10 µM was found to be 32.3%. Further, the results for the EC50 (in the experiment on SW480 colon cancer cells; in experiment [1]) were above 10000 nM and 1130 nM, respectively.

As for `Cn1cc(-c2ccc3[nH]nc(-c4nc5c(-c6cc(F)cc(CNS(C)(=O)=O)c6)cccc5[nH]4)c3n2)cn1` [Compound 764, N-(3-Fluoro-5-(2-(5-(1-methyl-1H-pyrazol-4-yl)-1H-pyrazolo[4,3-b]pyridin-3-yl)-1H-benzo[d]imidazol-4-yl)benzyl)methanesulfonamide], the values for the EC50 (in the experiment with SW480 colon cancer cells; in experiment [1]) were 1410 nM and 1990 nM, respectively.

As to `CS(=O)(=O)NCc1cc(F)cc(-c2cccc3[nH]c(-c4n[nH]c5ccc(-c6cncc(NC(=O)CC7CCNCC7)c6)nc45)nc23)c1` [Compound 769, N-(5-(3-(4-(3-Fluoro-5-(methylsulfonamidomethyl)phenyl)-1H-benzo[d]imidazol-2-yl)-1H-pyrazolo[4,3-b]pyridin-5-yl)pyridin-3-yl)-2-(piperidin-4-yl)acetamide], in the experiment on SW480 colon cancer cells, the inhibition at 10 µM worked out at 0% and the EC50 was above 10000 nM. The molecule also came in with a concentration giving a half-maximal response (EC50) in experiment [1] of 3250 nM.

Turning to `Cc1ncc(-c2ccc3[nH]nc(-c4nc5c(-c6cc(F)cc(NCCN(C)C)c6)cccc5[nH]4)c3n2)n1C` [Compound 781, N^1-(3-(2-(5-(1,2-Dimethyl-1H-imidazol-5-yl)-1H-pyrazolo[4,3-b]pyridin-3-yl)-1H-benzo[d]imidazol-4-yl)-5-fluorophenyl)-N^2,N^2-dimethylethane-1,2-diamine], the half-maximal effective concentration (EC50) with SW480 colon cancer cells is 549 nM; in experiment [1] it was 917 nM.

For `CN(C)CCNc1cc(F)cc(-c2cccc3[nH]c(-c4n[nH]c5ccc(-c6cncc(OCCN7CCCC7)c6)nc45)nc23)c1` [Compound 786, N^1-(3-Fluoro-5-(2-(5-(5-(2-(pyrrolidin-1-yl)ethoxy)pyridin-3-yl)-1H-pyrazolo[4,3-b]pyridin-3-yl)-1H-benzo[d]imidazol-4-yl)phenyl)-N^2,N^2-dimethylethane-1,2-diamine], the values for the EC50 (in the experiment on SW480 colon cancer cells; in experiment [1]) were 3560 nM and 1770 nM, respectively.
